For series [1], the system named is Green Peach Aphid (Myzus Persicae). Briefly: Test of preventive value against green peach aphid (Test Example 1). The class given is in vivo. The following applies: 500 ppm, sprayed over stems and leaves of potted Chinese cabbages, sixth day after spraying. As for the experimental part: Test of Preventive Value Against Green Peach Aphid (Myzus Persicae)
Chinese cabbages were planted in plastic pots, each with a size of 8 cm in diameter and 8 cm in height, after which green peach aphids were propagated and the number of parasitic insects was examined in each pot. An oxazepine compound or salt thereof expressed by General Formula (I) according to the present invention was dispersed in water and the dispersion was diluted to 500 ppm in the form of a reagent, after which the reagent was sprayed over stems and leaves of potted Chinese cabbages and let dry under wind, and the pots were kept in a greenhouse, and on the sixth day after the reagent was sprayed, the number of green peach aphids living parasitically on each Chinese cabbage was examined and the preventive value was calculated based on the formula below, and judgment was made according to the criteria below. Preventive value=100−{(T×Ca)/(Ta×C)}×100 [Mathematical Formula 1] • Ta: Number of parasitic insects inside the treatment area before spraying • T: Number of parasitic insects inside the treatment area after spraying • Ca: Number of parasitic insects inside the non-treatment area before spraying • C: Number of parasitic insects inside the non-treatment area after spraying Judgment Criteria • A - - - Preventive value: 100% • B - - - Preventive value: 99%˜90% • C - - - Preventive value: 89%˜80% • D - - - Preventive value: 79%˜50%

Series [2] relates to Small Brown Planthopper (Laodelphax Striatellus). Kind of series: Test of insecticidal efficacy against small brown planthopper (Test Example 2). In kind it is in vivo. The settings on record: 500 ppm, rice plants soaked 30 seconds, third-instar larvae, eight days after inoculation; criteria same as in Test Example 1. An excerpt:
Test of Insecticidal Efficacy Against Small Brown Planthopper (Laodelphax Striatellus)

Take `C#CCN1C(=O)c2nn(-c3cccnc3)cc2Oc2ccccc21` [1-3]: the “Preventive value, judgment” value in series [1] is listed as “A to D”. In addition, the “Corrected insect mortality, judgment” value in series [2] is recorded as “A to D”.
Turning to `N#CCN1C(=O)c2nn(-c3cccnc3)cc2Oc2ccccc21` [1-4], in series [1], the “Preventive value, judgment” value is on record as “A to D”. Further, the “Corrected insect mortality, judgment” value in series [2] was “A to D”.
Consider `O=C1c2nn(-c3cccnc3)cc2Oc2ccccc2N1CC(F)(F)F` [1-5], for which the “Preventive value, judgment” value in series [1] is “A to D”. Besides, in series [2], the “Corrected insect mortality, judgment” value was “A to D”.
`O=C1Nc2cccc(F)c2Oc2cn(-c3cccnc3)nc21` [1-6]: the “Preventive value, judgment” value in series [1] was “A to D”. Besides, the “Corrected insect mortality, judgment” value in series [2] is “A to D”.
As to `CN1C(=O)c2nn(-c3cccnc3)cc2Oc2c(F)cccc21` [1-7], the “Preventive value, judgment” value in series [1] was “A to D”. The “Corrected insect mortality, judgment” value in series [2] is “A to D”.
Consider `O=C1Nc2cccc(Cl)c2Oc2cn(-c3cccnc3)nc21` [1-22], for which the “Preventive value, judgment” value in series [1] is “A to D”.
In the case of `Cc1ccc2c(c1)Oc1cn(-c3cccnc3)nc1C(=O)N2C` [1-31], the “Corrected insect mortality, judgment” value in series [2] was “A to D”.
With `CN(C)CCN1C(=O)c2nn(-c3cccnc3)cc2Oc2ccccc21` [1-69], the “Corrected insect mortality, judgment” value in series [2] is on record as “A to D”.
Take `CN1C(=O)c2nn(-c3cncc(Br)c3)cc2Oc2ccccc21` [1-83]: the “Preventive value, judgment” value in series [1] is reported as “A to D”.
Regarding `CN1Cc2nn(-c3cccnc3)cc2Oc2ccccc21` [3-2], in series [1], the “Preventive value, judgment” value is listed as “A to D”.
In the case of `C#CCN1Cc2nn(-c3cccnc3)cc2Oc2ccccc21` [3-3], the “Corrected insect mortality, judgment” value in series [2] is “A to D”.
`N#CCN1Cc2nn(-c3cccnc3)cc2Oc2cc(F)ccc21` [3-5]: the “Preventive value, judgment” value in series [1] is on record as “A to D”.
`CC(=O)N1Cc2nn(-c3cccnc3)cc2Oc2ccc(F)cc21` [3-9]: the “Preventive value, judgment” value in series [1] was “A to D”.
In the case of `C[S+]([O-])CN1C(=O)c2nn(-c3cccnc3)cc2Oc2ccccc21` (stereo not shown) [8-3], the “Preventive value, judgment” value in series [1] is reported as “A to D”.
Still for that read-out and setting: next, `CC#CCN1C(=O)c2nn(-c3cccnc3)cc2Oc2ccccc21` [8-5]: “A to D”; `CC(C)=CCN1C(=O)c2nn(-c3cccnc3)cc2Oc2ccccc21` [8-6]: “A to D”; `CN(C)C(=O)CN1C(=O)c2nn(-c3cccnc3)cc2Oc2ccccc21` [8-7]: “A to D”.
For the compound `NC(=O)CCN1C(=O)c2nn(-c3cccnc3)cc2Oc2ccccc21` [8-8], the “Preventive value, judgment” value in series [1] was “A to D”.
Regarding `CC(=O)OCN1C(=O)c2nn(-c3cccnc3)cc2Oc2ccccc21` [8-9], the “Preventive value, judgment” value in series [1] is recorded as “A to D”.
Turning to `O=C1c2nn(-c3cccnc3)cc2Oc2ccccc2N1CC1OCCO1` [8-11], the “Preventive value, judgment” value in series [1] is “A to D”.
The same measure, in the same setting: next, `CN(C)C(=O)N1C(=O)c2nn(-c3cccnc3)cc2Oc2ccccc21` [8-14]: “A to D”.
Regarding `O=CCN1C(=O)c2nn(-c3cccnc3)cc2Oc2ccccc21` [8-15], the “Preventive value, judgment” value in series [1] is reported as “A to D”.
Take `CON=CCN1C(=O)c2nn(-c3cccnc3)cc2Oc2ccccc21` [8-16]: in series [1], the “Preventive value, judgment” value is “A to D”.
Turning to `O=C1c2nn(-c3cccnc3)cc2Oc2ccccc2N1CCSCCC(F)(F)F` [8-17], the “Preventive value, judgment” value in series [1] is on record as “A to D”.
Same read-out and setting: next, `O=C1c2nn(-c3cccnc3)cc2Oc2ccccc2N1CC[S+]([O-])CCC(F)(F)F` (stereo not shown) [8-18]: “A to D”.
On the same count and under the same terms, next, `O=C1c2nn(-c3cccnc3)cc2Oc2ccccc2N1CCS(=O)(=O)CCC(F)(F)F` [8-19]: “A to D”.
`CCOCN1C(=O)c2nn(-c3cccnc3)cc2Oc2ccccc21` [8-21]: the “Corrected insect mortality, judgment” value in series [2] is on record as “A to D”.
Take `COCN1C(=O)c2nn(-c3cccnc3)cc2Oc2c(F)cccc21` [8-22]: the “Preventive value, judgment” value in series [1] is “A to D”.
`C=CCN1C(=O)c2nn(-c3cccnc3)cc2Oc2cc(F)ccc21` [8-23]: the “Corrected insect mortality, judgment” value in series [2] was “A to D”.
For the compound `O=C1c2nn(-c3cccnc3)cc2Oc2cc(F)ccc2N1CC1CC1` [8-27], in series [1], the “Preventive value, judgment” value was “A to D”.
Regarding `CC(C)CN1C(=O)c2nn(-c3cccnc3)cc2Oc2cc(F)ccc21` [8-28], the “Preventive value, judgment” value in series [1] is recorded as “A to D”.
With `CCC(C)N1C(=O)c2nn(-c3cccnc3)cc2Oc2cc(F)ccc21` (stereo not shown) [8-29], the “Preventive value, judgment” value in series [1] is “A to D”.
Take `N#CCCCN1C(=O)c2nn(-c3cccnc3)cc2Oc2cc(F)ccc21` [8-30]: in series [1], the “Preventive value, judgment” value is on record as “A to D”.
As to `N#CC(F)N1C(=O)c2nn(-c3cccnc3)cc2Oc2cc(F)ccc21` (stereo not shown) [8-33], the “Preventive value, judgment” value in series [1] is given as “A to D”.
The same measure, in the same setting: next, `O=C1c2nn(-c3cccnc3)cc2Oc2ccc(F)cc2N1CC1CC1` [8-36]: “A to D”; `O=C1c2nn(-c3cccnc3)cc2Oc2ccc(F)cc2N1CC(F)(F)F` [8-39]: “A to D”.
With `O=C1c2nn(-c3cccnc3)cc2Oc2ccc(F)cc2N1CC1OCCO1` [8-43], in series [1], the “Preventive value, judgment” value was “A to D”.
Same read-out and setting: next, `O=C1c2nn(-c3cccnc3)cc2Oc2ccc(F)cc2N1CCN1CCOCC1` [8-44]: “A to D”; `CSCN1C(=O)c2nn(-c3cccnc3)cc2Oc2ccc(F)cc21` [8-47]: “A to D”.
With `C[S+]([O-])CN1C(=O)c2nn(-c3cccnc3)cc2Oc2ccc(F)cc21` (stereo not shown) [8-48], the “Preventive value, judgment” value in series [1] was “A to D”.
As to `CC(C#N)N1C(=O)c2nn(-c3cccnc3)cc2Oc2ccc(F)cc21` (stereo not shown) [8-50], the “Preventive value, judgment” value in series [1] is on record as “A to D”.
Still for that read-out and setting: next, `N#CCCCN1C(=O)c2nn(-c3cccnc3)cc2Oc2ccc(F)cc21` [8-51]: “A to D”; `NC(=O)CN1C(=O)c2nn(-c3cccnc3)cc2Oc2ccc(F)cc21` [8-52]: “A to D”.
Still for that read-out and setting: next, `O=CN1C(=O)c2nn(-c3cccnc3)cc2Oc2ccc(F)cc21` [8-53]: “A to D”; `CN1C(=O)c2nn(-c3cccnc3)cc2Oc2ccc(Cl)cc21` [8-55]: “A to D”.
For `N#CCN1C(=O)c2nn(-c3cccnc3)cc2Oc2ccc(Cl)cc21` [8-57], the “Corrected insect mortality, judgment” value in series [2] is reported as “A to D”.
Regarding `C=CCN1C(=O)c2nn(-c3cccnc3)cc2Oc2ccc(Cl)cc21` [8-58], the “Corrected insect mortality, judgment” value in series [2] is “A to D”.
In the case of `CN1C(=O)c2nn(-c3cccnc3)cc2Oc2cccc(Cl)c21` [8-59], the “Preventive value, judgment” value in series [1] was “A to D”.
As to `O=C1Nc2ccc(Br)cc2Oc2cn(-c3cccnc3)nc21` [8-60], the “Preventive value, judgment” value in series [1] is given as “A to D”.
In the case of `CN1C(=O)c2nn(-c3cccnc3)cc2Oc2cc(Br)ccc21` [8-61], in series [1], the “Preventive value, judgment” value is “A to D”.
In the case of `CN1C(=O)c2nn(-c3cccnc3)cc2Oc2ccc(Br)cc21` [8-63], the “Preventive value, judgment” value in series [1] is recorded as “A to D”.
Take `C=CCN1C(=O)c2nn(-c3cccnc3)cc2Oc2ccc(Br)cc21` [8-64]: the “Corrected insect mortality, judgment” value in series [2] is given as “A to D”.
Consider `C#CCN1C(=O)c2nn(-c3cccnc3)cc2Oc2ccc(Br)cc21` [8-65], for which, in series [1], the “Preventive value, judgment” value is “A to D”.
As to `N#CCN1C(=O)c2nn(-c3cccnc3)cc2Oc2ccc(Br)cc21` [8-66], the “Corrected insect mortality, judgment” value in series [2] was “A to D”.
Regarding `CN1C(=O)c2nn(-c3cccnc3)cc2Oc2cc(I)ccc21` [8-67], the “Preventive value, judgment” value in series [1] was “A to D”.
Regarding `O=C1Nc2ccc(Cl)cc2Oc2c1nn(-c1cccnc1)c2Cl` [9-4], in series [1], the “Preventive value, judgment” value is recorded as “A to D”.
The same measure, in the same setting: next, `N#CCN1C(=O)c2nn(-c3cccnc3)c(Cl)c2Oc2cc(F)ccc21` [9-5]: “A to D”.
Same read-out and setting: next, `O=C1Nc2ccccc2Nc2cn(-c3cccnc3)nc21` [10-1]: “A to D”; `C[Si](C)(C)C#CC1=Nc2ccccc2Oc2cn(-c3cccnc3)nc21` [11-4]: “A to D”; `CN1CCN(C2=Nc3ccccc3Oc3cn(-c4cccnc4)nc32)CC1` [11-12]: “A to D”.
As to `CN1CCN(C2=Nc3cc(F)ccc3Oc3cn(-c4cccnc4)nc32)CC1` [11-13], the “Preventive value, judgment” value in series [1] is reported as “A to D”.
For the compound `c1cncc(-n2cc3c(n2)C(N2CCOCC2)=Nc2ccccc2O3)c1` [11-14], in series [1], the “Preventive value, judgment” value is recorded as “A to D”.
As for `Fc1ccc2c(c1)N=C(N1CCOCC1)c1nn(-c3cccnc3)cc1O2` [11-15], in series [2], the “Corrected insect mortality, judgment” value is recorded as “A to D”.
For the compound `COCOC1=Nc2ccccc2Oc2cn(-c3cccnc3)nc21` [11-16], in series [2], the “Corrected insect mortality, judgment” value is “A to D”.
In the case of `Cc1nn(C)c2c1N(C)C(=O)c1nn(-c3cccnc3)cc1O2` [14-2], in series [1], the “Preventive value, judgment” value is listed as “A to D”.
Consider `C=CCN1C(=O)c2nn(-c3cccnc3)cc2Oc2c1c(C)nn2C` [14-3], for which the “Corrected insect mortality, judgment” value in series [2] was “A to D”.
In the case of `C#CCN1C(=O)c2nn(-c3cccnc3)cc2Oc2c1c(C)nn2C` [14-4], in series [1], the “Preventive value, judgment” value is “A to D”.
For `O=C1Nc2ccsc2Oc2cn(-c3cccnc3)nc21` [15-1], the “Preventive value, judgment” value in series [1] is given as “A to D”.
With `CN1C(=O)c2nn(-c3cccnc3)cc2Oc2sccc21` [15-2], the “Preventive value, judgment” value in series [1] is “A to D”.
With `C#CCN1C(=O)c2nn(-c3cccnc3)cc2Oc2sccc21` [15-3], the “Preventive value, judgment” value in series [1] is given as “A to D”.
Consider `N#CCN1C(=O)c2nn(-c3cccnc3)cc2Oc2sccc21` [15-4], for which the “Preventive value, judgment” value in series [1] is “A to D”.

Source of the values: patent US10100061B2, “Oxazepine compound and agricultural/horticultural insecticide containing said compound as active ingredient, and method for using the same” (NIHON NOHYAKU CO., LTD., priority 2014, dated 2018).
